Patent US20230293629A1, “METHODS FOR ATTENUATING RELEASE OF INFLAMMATORY MEDIATORS AND PEPTIDES USEFUL THEREIN” (BIOMARCK PHARMACEUTICALS LTD., priority 2006, published 2023)
Where a SMILES comes first, the peptide text is derived from it. Where no end group is shown, it is not given here. [ ]: non-standard residue; d: D form. The star is where a group is joined. Myristoyl = CCCCCCCCCCCCCC(=O)*

Legend:
human neutrophils = experiment: PMA-stimulated MPO release from isolated human neutrophils (TMB assay); type: cell-based; conditions: 100 μM test peptide, two hour incubation with 100 nM PMA; human neutrophils
Excerpt: Human neutrophil isolation—These studies were approved by the human studies Institutional Review Board (IRB). Human neutrophils were isolated as previously described (see Takashi S, OkuboY, Horie S. Contribution of CD54 to human eosinophil and neutrophil superoxide production. J Appl Physiol 2001; 91:613-622) with slight modifications. Briefly, heparinized venous blood was obtained from normal healthy volunteers, diluted with RPMI-1640 (Cellgro; Mediatech, Inc., Herndon, VA) at a ratio of 1:1, layered onto a Histopaque (density, 1.077 g/ml; Sigma-Aldrich Co., St. Louis, MO) and centrifuged at 400 g for 20 min at 4° C. The supernatant and mononuclear cells at the interface were carefully removed, and erythrocytes in the sediment were lysed in chilled distilled water. Isolated granulocytes were washed twice with Hanks' balanced salts solution (HBSS) and resuspended in HBSS on ice.
Measurement of released neutrophil MPO activity—For measurement of MPO release, purified human neutrophils suspended in HBSS were aliquoted at 4×10^6 cells/ml in 15 ml tubes and preincubated with either 50 or 100 μM of MANS, RNS, or one of the peptides of invention for 10 min at 37° C. The cells then were stimulated with 100 nM phorbol 12-myristate 13-acetate (PMA) for up to 3 hrs. A control reference (PMA control reference) was established using purified human neutrophils suspended in HBSS aliquoted at 4×10^6 cells/ml in 15 mL tubes and stimulated with 100 nM phorbol 12-myristate 13-acetate (PMA) in the absence of a test peptide for the same time periods. The reaction was terminated by placing the tubes on ice and centrifugation at 400 g for 5 min at 4° C.
MPO activity in the cell supernatant was assayed using tetramethylbenzidine (TMB) based on a previously established technique (Abdel-Latif D, Steward M, Macdonald D L, Francis G A., Dinauer M C, Lacy P. Rac2 is critical for neutrophil primary granule exocytosis. Blood 2004; 104:832-839). Briefly, 100 μL of TMB substrate solution was added to 50 μL of cell supernatants or standard human MPO (EMD Biosciences, Inc., San Diego, CA) in a 96-well microplate followed by incubation at room temperature for 15 min. The reaction was terminated by addition of 50 μL of 1M […] and absorbance was read at 450 nm in a spectrophotometric microplate reader (VERSA max, Molecular Devices, Sunnyvale, CA).
The data presented in the table below represents 100 μM concentration of test peptides and a two hour incubation with 100 nM PMA.

HL-60 clone 15 cells = experiment: PMA-stimulated EPO release from HL-60 clone 15 cells; type: cell-based, human; conditions: 50 μM test peptide, two hour incubation with 100 nM PMA; HL-60 clone 15 cells
Method: (§1) Three types of human leukocyte cell lines, specifically the promyelocytic cell line HL-60 clone 15, the monocytic cell line U937, and the lymphocyte natural killer cell line NK-92 were purchased from American Type Culture Collection (ATCC; Rockville, MD). HL-60 clone 15 cells (ATCC CRL-1964) were maintained in medium consisting of RPMI 1640 with L-glutamine supplemented with 10% heat-inactivated fetal bovine serum (Gibco; Invitrogen Co., Carlsbad, CA), 50 IU/ml penicillin, 50 μg/mL streptomycin, and 25 mM HEPES buffer, pH 7.8, at 37° C. in an atmosphere containing 5% CO2. Final differentiation to an eosinophil-like phenotype was initiated by culturing cells at 5×10^5 cells/ml in the above medium containing 0.5 mM butyric acid (Sigma-Aldrich Co.) for 5 days as previously described (Tiffany H L, Li F, Rosenberg H F. Hyperglycosylation of eosinophil ribonucleases in a promyelocytic leukemia cell line and in differentiated peripheral blood progenitor cells. J Leukoc Biol 1995; 58:49-54; Tiffany H L, Alkhatib G, Combadiere C, Berger E A, Murphy P M. CC chemokine receptors 1 and 3 are differentially regulated by IL-5 during maturation of eosinophilic HL-60 cells. J Immunol 1998; 160:1385-1392). U937 cells (ATCC CRL-1593.2) were grown at 37° C. in an atmosphere of 5% CO2 in complete medium consisting of RPMI 1640 with L-glutamine supplemented with 10% FBS, 50 IU/ml penicillin, and 50 μg/mL streptomycin. NK-92 cells (ATCC CRL-2407) were maintained in alpha-MEM medium (Sigma-Aldrich Co.) supplemented with 20% FBS, 100 U/ml of interleukin-2 (IL-2) (Chemicon International, Inc., Temecula, CA), 5×10^−5 M of 2-mercaptoethanol, 50 IU/mL penicillin, and 50 μg/ml streptomycin at 37° C. in an atmosphere containing 5% CO2. Cell morphology was judged by assessment of Wright-Giemsa-stained cells. Viability of cells harvested for experiments was assessed by trypan blue exclusion and populations of cells with viability >95% were used.
(§2) HL-60 clone 15, U937, and NK-92 cells were washed and resuspended at 2.5×10^6 cells/ml in phenol red-free RPMI-1640 (Cellgro; Mediatech, Inc.) for all degranulation assays. Aliquots of cells in 15 ml tubes were preincubated with indicated concentrations of MANS, RNS, or a test peptide for 10 min at 37° C. The cells then were stimulated with PMA for up to 2 hr. A control reference (PMA control reference) was established for each cell type using HL-60 clone 15, U937, and NK-92 cells, respectively, which were washed and resuspended at 2.5×10^6 cells/ml in phenol red-free RPMI-1640 and stimulated with PMA but in the absence of MANS, RNS, or a test peptide for the same time periods. The reaction was terminated by placing tubes on ice and centrifuging cells at 400 g for 5 min at 4° C.
(§3) For measurements of released MPO from neutrophils and released lysozyme from U937 cells, we were able to quantify secretion by using as standards human MPO and egg white […], respectively. For released EPO from HL-60 clone 15 cells and for released granzyme from NK-92 cells, no standards were available to use for quantification. […] To measure intracellular EPO in HL-60 clone 15 cells and intracellular granzyme in NK-92 cells, appropriate aliquots of 0.1% triton X-100-lysed cells were taken for quantification of intracellular granule proteins as described below. All treatments were expressed as percentage of control to minimize variability between cultures.
EPO activity released by HL-60 clone 15 cells was assayed using TMB according to a previously established technique (Lacy P, Mahmudi-Azer S, Bablitz B, Hagen S C, Velazquez J R, Man S F, Moqbel R. Rapid mobilization of intracellularly stored RANTES in response to interferon-gamma in human eosinophils. Blood 1999; 94:23-32). Thus, 100 μL of TMB substrate solution was added to 50 μL=microliters) of sample in a 96-well microplate and incubated at room temperature for 15 min (min=minutes). […]

U937 cells = experiment: PMA-stimulated lysozyme secretion by U937 cells; type: cell-based, human; conditions: 50 μM test peptide, two hour incubation with 100 nM PMA; U937 cells
Method: as §1, §2, §3
Lysozyme secreted by U937 cells was measured using a spectrophotometric assay as described previously (Balboa M A, Saez Y, Balsinde J. Calcium-independent phospholipase A2 is required for lysozyme secretion in U937 promonocytes. J Immunol 2003; 170:5276-5280) with slight modification. Thus, 100 μL of sample was mixed with 100 μL of a Micrococcus lysodeikticus (Sigma-Aldrich Co.) suspension (0.3 mg/ml in 0.1 M sodium phosphate buffer, pH 7.0) in a 96-well microplate. The decrease in absorbance at 450 nm was measured at room temperature. […]

[1] = Qualitative solubility of peptides in 0.5 N saline, pH 6.5

Row | Compound | % Inhibition MPO (human neutrophils) [%] | % Inhibition EPO (HL-60 clone 15 cells) [%] | % Inhibition Lysozyme (U937 cells) [%] | solubility [1] [mg/mL]
1 | CC(=O)NCC(=O)N[C@H](C)C(=O)N[C@H](CCC(N)=O)C(=O)N[C@H](Cc1ccccc1)C(=O)N[C@H](CO)C(=O)N[C@H](CCCCN)C(=O)N[C@@H](C(=O)N[C@H](C)C(=O)N[C@H](C)C(=O)N[C@H](CCCCN)C(=O)O)[C@H](C)O [Ac-GAQFSKTAAK (all d), GAQFSKTAAK (all d)] (Ac-G[dA][dQ][dF][dS][dK][dT][dA][dA][dK]-OH; C-terminus assumed) | 40.0 | 26.9 | 8.9 | > 100
2 | CCCCCCCCCCCCCC(=O)NCC(=O)N[C@@H](C)C(=O)N[C@@H](CCC(N)=O)C(=O)N[C@@H](Cc1ccccc1)C(=O)N[C@@H](CO)C(=O)N[C@@H](CCCCN)C(=O)N[C@H](C(=O)N[C@@H](C)C(=O)N[C@@H](C)C(=O)N[C@@H](CCCCN)C(=O)NCC(=O)N[C@@H](CCC(=O)O)C(=O)O)[C@@H](C)O [MA-GAQFSKTAAKGE, GAQFSKTAAKGE] (Myristoyl-GAQFSKTAAKGE-OH; C-terminus assumed) | 43.2 | 25.2 | 85.2 | > 2
3 | CCCCCCCCCCCCCC(=O)NCC(=O)N[C@@H](C)C(=O)N[C@@H](CCC(N)=O)C(=O)N[C@@H](Cc1ccccc1)C(=O)N[C@@H](CO)C(=O)N[C@@H](CCCCN)C(=O)N[C@H](C(=O)N[C@@H](CCCCN)C(=O)N[C@@H](C)C(=O)N[C@@H](CCCCN)C(=O)NCC(=O)N[C@@H](CCC(=O)O)C(=O)O)[C@@H](C)O [MA-GAQFSKTKAKGE, GAQFSKTKAKGE] (Myristoyl-GAQFSKTKAKGE-OH; C-terminus assumed) | 65.2 |  |  | > 3
4 | Ac-AQFSKTAAKGE-NH2 [Ac-AQFSKTAAKGE-NH2, AQFSKTAAKGE] |  | 42.8 | 51.8 | > 90
5 | Ac-FSKTAAKGE-NH2 [Ac-FSKTAAKGE-NH2, FSKTAAKGE] |  | 25.3 | 56.7 | > 100
6 | Ac-GAQFSATAAA [Ac-GAQFSATAAA, GAQFSATAAA] |  | 35.7 | 3.2 | < 10
7 | Ac-GAQFSKTA [Ac-GAQFSKTA, GAQFSKTA] |  | 0 | 0 | > 200
8 | Ac-GAQFSKTAA [Ac-GAQFSKTAA, GAQFSKTAA] |  | 33.3 | 28.9 | > 20
9 | Ac-GAQFSKTAAA [Ac-GAQFSKTAAA, GAQFSKTAAA] |  | 55.2 | 28.3 | > 100
10 | Ac-GAQFSKTAAAGE [Ac-GAQFSKTAAAGE, GAQFSKTAAAGE] |  | 55.8 | 37.2 | > 50
11 | Ac-GAQFSKTAAKGA [Ac-GAQFSKTAAKGA, GAQFSKTAAKGA] |  | 40.9 | 24.1 | > 50
12 | Ac-GAQFSKTAAKGE [Ac-GAQFSKTAAKGE, GAQFSKTAAKGE] |  | 46.7 | 43.3 | > 100
13 | Ac-GAQFSKTAAKGE-NH2 [Ac-GAQFSKTAAKGE-NH2, GAQFSKTAAKGE] | 26.5 | 24.7 | 38.6 | > 60
14 | Ac-KTAAKGE-NH2 [Ac-KTAAKGE-NH2, KTAAKGE] |  | 0 | 24.3 | > 200
15 | Ac-QFSKTAAKGE-NH2 [Ac-QFSKTAAKGE-NH2, QFSKTAAKGE] |  | 15.7 | 60.7 | > 150
16 | Ac-SKTAAKGE-NH2 [Ac-SKTAAKGE-NH2, SKTAAKGE] |  | 42.2 | 0 | > 200
17 | Ac-TAAKGEAA [Ac-TAAKGEAA, TAAKGEAA] |  | 40.4 | 0.5 | > 230
18 | H-GAQFSKTAAKGE [peptide 79, GAQFSKTAAKGE] | 27.9 |  |  | 
